Experiments:
ALOMY [1] = experiment: Herbicidal post-emergence action 1a (greenhouse pots, visual rating); format: in vivo, Alopecurus myosuroides; conditions: rated visually about 3 weeks after treatment, 100% = plants have died, 0% = like control plants
Procedure: (§1) [table] a) Seeds of monocotyledonous and dicotyledonous weeds and crop plants are placed in sandy loam in plastic or organic plant pots, covered with soil and cultivated in a greenhouse under controlled growth conditions. 2 to 3 weeks after sowing, the test plants are treated at the one-leaf stage. The compounds of the invention, formulated in the form of wettable powders (WP) or as emulsion concentrates (EC), are then sprayed onto the green parts of the plants as aqueous suspension or emulsion with addition of 0.5% additive at a water application rate of 600 1/ha (converted). After the test plants have been kept in the greenhouse under optimum growth conditions for about 3 weeks, the activity of the preparations is rated visually in comparison to untreated controls. For example, 100% activity=the plants have died, 0% activity=like control plants. Tables A1 to A15 below show the effects of selected compounds of the general formula (I) according to Tables 1 and 2 on various harmful plants and an application rate corresponding to 320 g/ha and/or 80 g/ha, which were obtained by the experimental procedure mentioned above.

AVEFA [2] = experiment: as above; format: in vivo, Avena fatua; conditions: Dosage 320 g/ha; rated visually about 3 weeks after treatment; 100% = plants have died, 0% = like control plants
Procedure: as §1

ECHCG [3] = experiment: as above; format: in vivo, Echinochloa crus-galli; conditions: Dosage 320 g/ha; rated visually about 3 weeks after treatment; 100% = plants have died, 0% = like control plants
Procedure: as §1

LOLRI [4] = experiment: as above; format: in vivo, Lolium rigidum; conditions: Dosage 320 g/ha; rated visually about 3 weeks after treatment; 100% = plants have died, 0% = like control plants
Procedure: as §1

SETVI [5] = experiment: as above; format: in vivo, Setaria viridis; conditions: rated visually about 3 weeks after treatment, 100% = plants have died, 0% = like control plants
Procedure: as §1

ABUTH = experiment: as above; format: in vivo, Abutilon theophrasti; conditions: visual rating about 3 weeks after treatment
Procedure: as §1

AMARE [6] = experiment: as above; format: in vivo, Amaranthus retroflexus; conditions: visual rating about 3 weeks after treatment
Procedure: as §1

POLCO [7] = experiment: as above; format: in vivo, Polygonum convolvulus; conditions: visual rating about 3 weeks after treatment
Procedure: as §1

VERPE [8] = experiment: as above; format: in vivo, Veronica persica; conditions: visual rating about 3 weeks after treatment
Procedure: as §1

ALOMY [9] = experiment: Herbicidal pre-emergence action 2a (greenhouse pots, visual scoring); format: in vivo, Alopecurus myosuroides; conditions: dosage 320 g/ha, visual scoring after about 3 weeks
From the text: (§2) [table] a) Seeds of monocotyledonous and dicotyledonous weed plants and crop plants are placed in plastic or organic plant pots and covered with soil. The compounds of the invention, formulated in the form of wettable powders (WP) or as emulsion concentrates (EC), are then applied onto the surface of the covering soil as aqueous suspension or emulsion with addition of 0.5% additive at a water application rate of 600 1/ha (converted). After the treatment, the pots are placed in a greenhouse and kept under good growth conditions for the trial plants. After about 3 weeks, the effect of the preparations is scored visually in comparison with untreated controls as percentages. For example, 100% activity=the plants have died, 0% activity=like control plants. Tables B1 to B15 below show the effects of selected compounds of the general formula (I) according to Tables 1 and 2 on various harmful plants and an application rate corresponding to 320 g/ha and/or 80 g/ha, which were obtained by the experimental procedure mentioned above.

AVEFA [10] = experiment: as above; format: in vivo, Avena fatua; conditions: dosage 320 g/ha, visual scoring after about 3 weeks
From the text: as §2

ECHCG [11] = experiment: as above; format: in vivo, Echinochloa crus-galli; conditions: dosage 320 g/ha, visual scoring after about 3 weeks
From the text: as §2

LOLRI [12] = experiment: as above; format: in vivo, Lolium rigidum; conditions: dosage 320 g/ha, visual scoring after about 3 weeks vs untreated controls
From the text: as §2

SETVI [13] = experiment: as above; format: in vivo, Setaria viridis; conditions: dosage 320 g/ha, visual scoring after about 3 weeks vs untreated controls
From the text: as §2

AMARE [14] = experiment: as above; format: in vivo, Amaranthus retroflexus; conditions: dosage 320 g/ha, visual scoring after about 3 weeks vs untreated controls
From the text: as §2

MATIN [15] = experiment: as above; format: in vivo, Matricaria inodora; conditions: dosage 320 g/ha, visual scoring after about 3 weeks vs untreated controls
From the text: as §2

POLCO [16] = experiment: as above; format: in vivo, Polygonum convolvulus; conditions: dosage 320 g/ha, visual scoring after about 3 weeks vs untreated controls
From the text: as §2

VERPE [17] = experiment: as above; format: in vivo, Veronica persica; conditions: dosage 320 g/ha, visual scoring after about 3 weeks vs untreated controls
From the text: as §2

VIOTR [18] = experiment: as above; format: in vivo, Viola tricolor; conditions: dosage 320 g/ha, visual scoring after about 3 weeks vs untreated controls
From the text: as §2

VIOTR [19] = experiment: Herbicidal post-emergence action 1a (greenhouse pots, visual rating); format: in vivo, Viola tricolor; conditions: visual rating about 3 weeks after treatment
Procedure: as §1

POAAN [20] = experiment: Herbicidal post-emergence action 1b (twin sowing, 1280 g/ha); format: in vivo, Poa annua; conditions: dosage 1280 g/ha, visual rating about 3 weeks after treatment
Procedure: (§3) [table] b) Seeds of mono- and dicotyledonous weed plants are placed in plastic pots in sandy loam soil (twin sowing with one species each of mono- or dicotyledonous weed plants per pot), covered with soil and cultivated in a greenhouse under controlled growth conditions. 2 to 3 weeks after sowing, the test plants are treated at the one-leaf stage. The compounds of the invention, formulated in the form of wettable powders (WP) or as emulsion concentrates (EC), are applied to the green parts of the plants as aqueous suspension or emulsion with addition of 0.5% additive at a water application rate equivalent to 600 litres per hectare. After the test plants have been kept in the greenhouse under optimum growth conditions for about 3 weeks, the activity of the preparations is rated visually in comparison to untreated controls. For example, 100% activity=the plants have died, 0% activity=like control plants. Tables A16 to A21 below show the effects of selected compounds of the general formula (I) according to Tables 1 and 2 on various harmful plants and at an application rate corresponding to 1280 g/ha, which were obtained by the experimental procedure mentioned above.

STEME [21] = experiment: as above; format: in vivo, Stellaria media; conditions: dosage 1280 g/ha, visual rating about 3 weeks after treatment
Procedure: as §3

POAAN [22] = experiment: Herbicidal pre-emergence action 2b (doubly sown, 1280 g/ha); format: in vivo, Poa annua; conditions: doubly sown pots, dosage 1280 g/ha, visual scoring after about 3 weeks
From the text: (§4) [table] b) Seeds of mono- and dicotyledonous weed plants are placed in plastic pots in sandy loam soil (doubly sown with one species each of mono- or dicotyledonous weed plants per pot) and covered with soil. The compounds of the invention, formulated in the form of wettable powders (WP) or as emulsion concentrates (EC), are then applied onto the surface of the covering soil as aqueous suspension or emulsion with addition of 0.5% additive at a water application rate equivalent to 600 litres per hectare. After the treatment, the pots are placed in a greenhouse and kept under good growth conditions for the trial plants. After about 3 weeks, the effect of the preparations is scored visually in comparison with untreated controls as percentages. For example, 100% activity=the plants have died, 0% activity=like control plants. Tables B16 to B21 below show the effects of selected compounds of the general formula (I) according to Tables 1 and 2 on various harmful plants and at an application rate corresponding to 1280 g/ha, which were obtained by the experimental procedure mentioned above.

DIGSA [23] = experiment: as above; format: in vivo, Digitaria sanguinalis; conditions: doubly sown pots, dosage 1280 g/ha, visual scoring after about 3 weeks
From the text: as §4

ECHCG [24] = experiment: as above; format: in vivo, Echinochloa crus-galli; conditions: doubly sown pots, dosage 1280 g/ha, visual scoring after about 3 weeks
From the text: as §4

AMARE [25] = experiment: as above; format: in vivo, Amaranthus retroflexus; conditions: doubly sown pots, dosage 1280 g/ha, visual scoring after about 3 weeks
From the text: as §4

MATIN [26] = experiment: as above; format: in vivo, Matricaria inodora; conditions: doubly sown pots, dosage 1280 g/ha, visual scoring after about 3 weeks
From the text: as §4

PHBPU = experiment: Herbicidal post-emergence action 1a (greenhouse pots, visual rating); format: in vivo, Pharbitis purpurea; conditions: dosage 320 g/ha, visual rating about 3 weeks after treatment
Procedure: as §1

MATIN [27] = experiment: Herbicidal post-emergence action 1b (twin sowing, 1280 g/ha); format: in vivo, Matricaria inodora; conditions: dosage 1280 g/ha, visual rating about 3 weeks after treatment
Procedure: as §3

DIGSA [28] = experiment: Herbicidal pre-emergence action 2a (greenhouse pots, visual scoring); format: in vivo, Digitaria sanguinalis; conditions: dosage 320 g/ha, visual scoring after about 3 weeks
From the text: as §2

STEME [29] = experiment: Herbicidal pre-emergence action 2b (doubly sown, 1280 g/ha); format: in vivo, Stellaria media; conditions: doubly sown pots, dosage 1280 g/ha, visual scoring after about 3 weeks
From the text: as §4

SMILES	Post-emergence action against ALOMY in % (ALOMY [1]; Dosage 320 g/ha)	Post-emergence action against AVEFA in % (AVEFA [2])	Post-emergence action against LOLRI in % (LOLRI [4])	Post-emergence action against AMARE in % (AMARE [6]; dosage 320 g/ha)	Post-emergence action against VERPE in % (VERPE [8]; dosage 320 g/ha)	Pre-emergence action against ALOMY in % (ALOMY [9])	Pre-emergence action against AVEFA in % (AVEFA [10])	Pre-emergence action against ECHCG in % (ECHCG [11])	Pre-emergence action against LOLRI in % (LOLRI [12])	Pre-emergence action against SETVI in % (SETVI [13])	Pre-emergence action against AMARE in % (AMARE [14])	Pre-emergence action against MATIN in % (MATIN [15])	Pre-emergence action against POLCO in % (POLCO [16])	Pre-emergence action against VERPE in % (VERPE [17])	Pre-emergence action against VIOTR in % (VIOTR [18])	Post-emergence action against VIOTR in % (VIOTR [19]; dosage 320 g/ha)	Post-emergence action at 1280 g/ha against POAAN in % (POAAN [20])	Post-emergence action at 1280 g/ha against STEME in % (STEME [21])	Pre-emergence action at 1280 g/ha against POAAN in % (POAAN [22])	Pre-emergence action at 1280 g/ha against ECHCG in % (ECHCG [24])	also measured
CCOC(=O)COc1nn(-c2cnccn2)c(-c2cncc(F)c2)c1Br [Example I-90]	100%	100%	80%	90%	90%	90%	100%	100%	100%	100%	100%	100%	100%	100%	–	–	–	–	–	–	Post-emergence action against ALOMY in % (ALOMY [1]; Dosage 80 g/ha): 80%; Post-emergence action against ECHCG in % (ECHCG [3]): 90%; Post-emergence action against SETVI in % (SETVI [5]; Dosage 80 g/ha): 80%; Post-emergence action against SETVI in % (SETVI [5]; Dosage 320 g/ha): 90%; Post-emergence action against ABUTH in % (ABUTH; dosage 80 g/ha): 90%; Post-emergence action against ABUTH in % (ABUTH; dosage 320 g/ha): 90%; Post-emergence action against POLCO in % (POLCO [7]; dosage 80 g/ha): 80%; Post-emergence action against POLCO in % (POLCO [7]; dosage 320 g/ha): 80%; Post-emergence action against VERPE in % (VERPE [8]; dosage 80 g/ha): 90%
COC(=O)COc1nn(-c2nccnc2F)c(-c2ccc(F)nc2)c1Br [Example I-77]	–	–	–	–	–	–	–	–	–	–	80%	80%	–	–	80%	–	–	–	–	–	–
COC(=O)[C@@H](C)Oc1nn(-c2cnccn2)c(-c2ccc(F)nc2)c1C#N [Example I-25]	80%	–	–	80%	–	80%	–	–	–	–	–	–	–	90%	90%	90%	90%	90%	100%	90%	Pre-emergence action at 1280 g/ha against DIGSA in % (DIGSA [23]): 100%; Pre-emergence action at 1280 g/ha against AMARE in % (AMARE [25]): 100%; Pre-emergence action at 1280 g/ha against MATIN in % (MATIN [26]): 90%
COC(=O)[C@H](C)Oc1nn(-c2cnccn2)c(-c2cccc(F)c2)c1Br [Example I-21]	90%	80%	90%	90%	80%	80%	–	–	90%	90%	100%	80%	–	90%	100%	90%	100%	100%	100%	100%	Post-emergence action against AMARE in % (AMARE [6]; dosage 80 g/ha): 80%; Post-emergence action against PHBPU in % (PHBPU): 80%; Post-emergence action against VIOTR in % (VIOTR [19]; dosage 80 g/ha): 80%; Post-emergence action at 1280 g/ha against MATIN in % (MATIN [27]): 90%; Pre-emergence action against DIGSA in % (DIGSA [28]): 90%; Pre-emergence action at 1280 g/ha against AMARE in % (AMARE [25]): 100%; Pre-emergence action at 1280 g/ha against MATIN in % (MATIN [26]): 100%; Pre-emergence action at 1280 g/ha against STEME in % (STEME [29]): 100%
C[C@@H](Oc1nn(-c2cnccn2)c(-c2cncc(F)c2)c1Cl)C(=O)O [Example 1-97]	–	–	–	–	–	–	–	100%	–	–	–	–	–	–	–	–	–	–	–	–	–
C[C@@H](Oc1nn(-c2nccnc2Cl)c(-c2ccc(F)nc2)c1Br)C(=O)O [Example I-75]	–	–	–	–	–	100%	90%	–	100%	–	90%	–	80%	–	80%	–	–	–	–	–	–
